Data: patent US20020120098A1, “Enhanced stimulation of erythropoiesis” (priority 1996, published 2002)

What was measured:
[1] = test system: erythroid colonies; assay: Hemoglobin production by erythroid colonies, anion exchange HPLC; format: cell-based, human; settings: 5% O2, 2 U/ml Epo; for adult Hb / fetal Hb / total Hb: 100 μM hemin, 1.0 mg/ml HAo or HEMOLINK, 250 μM FeCl3; for adult Hb per cell / fetal Hb per cell / total Hb per cell: estimated assuming 30,000 cells/BFU-E and 100 cells/CFU-E
Experimental: Hemoglobin synthesis in erythroid colonies was analyzed by anion exchange high performance liquid chromatography (HPLC). Colonies were harvested from CFA plates and cell lysates were prepared after the progenitor colonies had been enumerated. Colonies were isolated from methyl cellulose by several washes in PBS. The cells were pelleted and lysed in 50 mM Tris, pH 8.8 and the cell debris removed by pelleting the cell lysate. The lysate supernatants were filtered through a 0.2 ,μm filter prior to loading onto a POROS® HQ/H anion exchange HPLC column (PerSeptive Biosystems). The hemoglobin was eluted with an increasing NaCl gradient and the optical density (O.D.) monitored at a wavelength of 414 nm The amount of hemoglobin present in the lysates was quantitated by comparison with standard hemoglobin solutions of adult (HbA) and fetal hemoglobin (HbF).
Representative HPLC profiles for hemoglobin produced by erythroid colonies that formed at 5% O2 in the presence of 2 U/ml Epo with no addition (vehicle only), 100 μM hemin, 1.0 mg/ml HAo (15.6 μM) HAo, 1.0 mg/ml HEMOLINK™ (15.6 μM), or 250 μM FeCl3 are shown in FIG. 7.

[2] = test system: CFU-E; assay: Colony formation assay (CFA), cord blood LDMNC: CFU-E colonies; format: cell-based, human; settings: 5% O2, 0.2 U/ml Epo; 100 μM hemin, 1.0 mg/ml HAo or HEMOLINK; relative to controls at 2 U/ml Epo, ambient O2
[3] = test system: cord blood LDMNC; assay: Erythroid differentiation of cord blood LDMNC in liquid culture; format: cell-based, human; settings: 20 days
Experimental: The ability of purified adult hemoglobin to stimulate erythroid progenitor differentiation has also been studied using a liquid culture system containing Epo. In this liquid culture system hemin is known to accelerate erythroid differentiation of progenitors obtained from normal adult peripheral blood, and to selectively increase fetal hemoglobin production in these cells. Primary low density mononuclear cells (LDMNC) isolated from cord blood were tested in this culture system. […] The addition of HAo (7.8-15.6 μM) to the cultures results in a further increase in glycophorin A/CD71 co-expression (80% vs. 53% in the Epo only control) and benzidine staining (82% vs. 43% in the Epo only control) after 20 days in culture.
The effect of HAo on erythroid differentiation was tested on cord blood LDMNC. […] 1.0 mg/ml HAo (15.6 μM) was added to Epo-stimulated cultures and the cultured cells were analyzed by flow cytometry (Epics Elite, Coulter) after 20 days for the co-expression of the red cell-specific marker, glycophorin A, and the transferrin receptor, CD71. […] Cultured cells were stained with anti-CD71 (abscissa) and anti-glycophorin A (ordinate) antibodies and the number of single- or double-stained cells (z-axis) analyzed. […] The percentage of glycophorin A^+/CD71^+ cells was determined from analysis of at least 6,500 cells per sample.

[4] = Safety in animal experiments and Phase I clinical trial; format: in vivo; settings: series of animal experiments and Phase I clinical trial in humans
Text: A preferred embodiment of the present invention is the therapeutic application of hemoglobin to the treatment of anemia. HEMOLINK™ is a hemoglobin based oxygen carrier intended for use as a red blood cell substitute at doses that may exceed. 100 g. […] The present invention specifically proposes the repetitive administration of HEMOLINK™ in small doses to patients with anemia of any type. The anemias most amenable to hemoglobin therapy include: (1) anemias due to insufficient Epo production, including chronic renal failure, malaria, AIDS, rheumatoid arthritis, anemia of cancer, sickle cell anemia, prematurity and late anemia associated with Rhesus hemolytic disease of the newborn; (2) anemias due to inadequate iron incorporation, including iron-deficient anemias and anemias associated with chronic disease (e.g. infection, inflammation, trauma, or neoplastic diseases); and (3) anemias due to bone marrow failure that may be idiopathic or drug-induced.

[5] = test system: anemic rats; assay: Stimulation of erythropoiesis in iron-deficient anemic rats; format: in vivo, Sprague Dawley rats
Experimental: HEMOLINK™ was evaluated for the stimulation of erythropoiesis in anemic rats. Male Sprague Dawley rats were made anemic on an iron deficient diet over a 4 week period. Six of the anemic rats received two infusions via tail vein injection one week apart (dose I and dose II) of 10% of total blood volume of 9.8 g/dL HEMOLINK™. Nine anemic rats received an equivalent amount of parenteral iron (INFJFER™, Sabex) per kg body weight for comparison. Both solutions contained 342.9 mg/L iron. The iron-deficient anemia of the HEMOLINK™ group was characterized by a pretreatment serum iron level of […] (n=1), a reticulocyte count of 0.39±0.08×10^12/L, a red blood cell count of 1.85±0.35×10^12/L, a 6.5±1.26% hematocrit and a total blood hemoglobin of 30.5±4.38 g/L.
Statistical comparisons in FIG. 14 are based on one way analyses of variance, followed by Bonefoni comparison post-hoc tests. The effect of HEMOLINK™ infusion on reticulocyte count, red blood cell count, total hemoglobin and hematocrit in anemic male rats was compared to iron infusion (INFUFER™; an iron-containing pharmaceutical composition) and to pretreatment levels. Significant differences are indicated by *p<0.05 compared with INFUFER™ and **p<0.01 compared with pretreatment anemic rats.

[6] = Half-life and blood level of Epo versus HEMOLINK after single i.v. administration; format: in vivo; settings: for HEMOLINK level: single i.v. 4 ml/kg
Text: Another strategy for the co-administration of Epo and hemoglobin is to reduce the number of Epo administrations required during therapy. Several Epo therapies follow the regimen of three weekly injections, either intravenously or subcutaneously. Multiple low dose or single high dose injections of Epo are required due to its relatively short half-life in vivo. […] HEMOLINK™ has a longer half-life. […] Longer half-life of the cross-linked hemoglobin can therefore compensate for Epo which may decline at a much faster rate. Thus, hemoglobin co-administered with Epo could prolong the effectiveness of Epo and therefore this combination therapy can be used to reduce the required frequency of Epo administrations.

[7] = anemic male rats, two i.v. infusions one week apart

Compound	adult Hb [1] [µg]	fetal Hb [1] [µg]	total Hb [1] [µg]	adult Hb per cell [1] [pg/cell]	fetal Hb per cell [1] [pg/cell]	total Hb per cell [1] [pg/cell]	fold increase in CFU-E at 0.2 U/ml Epo and 5% O2 [2] [fold]	other results
[Cl][Fe]([Cl])[Cl] [FeCl3]	5.0	9.5	14.5	0.14	0.26	0.40	–	–
C=CC1=C(C)C2=Cc3c(C=C)c(C)c4[n]3[Fe-2]35([Cl])[n]6c(c(C)c(CCC(=O)O)c6=CC6=[N+]3C(=C4)C(C)=C6CCC(=O)O)=CC1=[N+]25 [hemin]	8.7	19.4	28.1	0.14	0.32	0.46	3.2	–
HAo: adult human hemoglobin obtained from red blood cells and purified by displacement chromatography; uncross linked product	22.6	33.1	55.7	0.37	0.54	0.91	2.1	percentage of cells co-expressing glycophorin A and CD71 ([3]; HAo 1.0 mg/ml (15.6 μM; b99: 7.8-15.6 μM), Epo-stimulated, untreated 53%): 80%; benzidine staining ([3]; HAo 7.8-15.6 μM, 2 U/ml Epo, Epo only control 43%): 82%
HEMOLINK™: chemically crosslinked hemoglobin prepared by treating human hemoglobin with a polyaldehyde (O-raffinose)	20.5	28.0	48.5	0.38	0.51	0.89	1.7	safety [4]: demonstrated to be safe; erythropoietic response of anemic female rats ([5]; anemic female rats): not significantly different from INFUFER™; serum iron level at study termination ([5]; anemic female rats, two doses): 27.70 ± 9.88 mg/dL; increase in hematocrit [5, 7]: significant increase; increase in number of red blood cells [5, 7]: significant increase; increase in number of reticulocytes [5, 7]: significant increase; increase in total hemoglobin concentration [5, 7]: significant increase; serum iron level at study termination ([5]; male rats, two infusions): 10.0 ± 1.95 mg/dL; HEMOLINK level ([6]; 0 hours post administration): 4.7 mg/mL; half-life of the 64 kD fraction ([6]; 0.4 g HEMOLINK/kg body weight): ~7 h; half-life of the >64 kD fraction ([6]; 0.4 g HEMOLINK/kg body weight): ~21 h; HEMOLINK level ([6]; 21 hours post administration): 1.75 mg/mL; HEMOLINK level ([6]; 42 hours post administration): 0.81 mg/mL; HEMOLINK level ([6]; 63 hours post administration): 0.39 mg/mL; HEMOLINK level ([6]; 84 hours post administration): 0.19 mg/mL
